Data from patent US20090298708A1, “2'-DEOXY-2'-FLUORO-BETA-D-ARABINONUCLEOSIDE 5'-TRIPHOSPHATES AND THEIR USE IN ENZYMATIC NUCLEIC ACID SYNTHESIS” (priority 2006, published 2009).
“Also recorded” adds a separate entry of the source. Marks after values point to notes of the source that are not given here.

What was measured:
[1] = target: T1, Deep Vent® (3′→5′ exo-) DNA polymerase (DV) (Pyrococcus sp., UniProt Q51334, D141A/DEL493-1029/E143A); assay: Primer extension assay with Deep Vent (exo-) DNA polymerase; format: biochemical, Pyrococcus species GB-D; design: key to Incorporation of three 2′F-araTTP / 2′F-araCTP (incorporation efficiency) / Enzymatic activity during primer extension reactions: ++++: excellent (no pausing observed); +++: very good (with slight pausing); ++: Good, full-length products with significant pausing; +: significant pausing, no full-length product but at least one 2′F-araN incorporation detected; conditions: for Incorporation of three 2′F-araTTP / 2′F-araCTP (incorporation efficiency): DNA template PF22 (2′F-araTTP) or PF24 (2′F-araCTP); for Order of efficiency of incorporation: DNA template PF22 (T/U triphosphates) or PF24 (C triphosphates), three contiguous units; for Enzymatic activity during primer extension reactions: plus dATP, dGTP
T1 construct: purchased New England Biolabs; host or cells: E. coli
Protocol: (§1) Various different types of DNA polymerases were assessed, including the mesophilic enzyme Klenow fragment of DNA pol I (3′→5′ exo-) (“Kf”); the thermophilic DNA polymerases DV, 9N, Taq, Bst pol I, Th and Ph; and the viral reverse transcriptases HIV RT and MMLV. Kf is a genetically engineered proteolytic product of E. coli pol A gene that encodes DNA polymerase I which retains polymerase activity but has a mutation which abolishes the 3′->5′ and 5′->3′ exonuclease activities. DV is a genetically engineered DNA polymerase purified from a strain of E. coli that carries the DV DNA polymerase gene from Pyrococcus species GB-D. The gene has been engineered to eliminate 3′->5′ proofreading exonuclease activity. 9N is a genetically engineered DNA polymerase that has decreased 3′->5′ proofreading exonuclease activity. 9N is purified from a strain of E. coli that carries a modified 9° N DNA polymerase gene from Thermococcus species (strain 9° N-7). […] Taq polymerase is isolated from E. coli engineered to express Taq polymerase from Thermus aquaticus YT-1. Bst DNA polymerase (Large fragment) is a genetically engineered polymerase that consists of the portion of the Bacillus stearothemmophilus DNA polymerase protein responsible for 5′->3′ polymerase activity but lacks the 5′->3′ exonuclease domain. Th DNA polymerase is a genetically engineered, archaeon-derived DNA polymerase that is a variant of the 9N polymerase described above. The recombinant protein is isolated from E. coli engineered to express 9° NA485L (exo-) DNA polymerase gene, a genetic variant of the native DNA polymerase from Thermococcus species 9° N-7. Ph is a recombinant DNA polymerase that consists of a novel Pyrococcus-like enzyme fused with a double-strand DNA-binding and processivity-enhancing domain.
(§2) Primer extension assays were used to assess the incorporation of 2′F-araNTP on the various DNA templates (Table 1). The DNA primer (PF20) was first radioactively labeled at the 5′-hydroxyl terminus with a radioactive phosphorus probe and the enzyme T4 polynucleotide kinase (T4 PNK) (see Example 1 for General Methods). To assess the incorporation of 2′F-araNTPs, the primer and template were annealed, and the nucleoside 5′-triphosphates added in the presence of enzyme under the conditions specified in Table 2. Time points were obtained by analyzing small aliquots from the reaction mixture through polyacryamide gel electrophoresis (PAGE) and autoradiography.
(§3) Unless otherwise noticed in the Examples described below, the conditions used in the primer extension assays, such as dNTP concentration, reaction temperatures, concentration of Mg^2+, and reaction buffers (provided by the manufacturers, except for the HIV buffer which was prepared in-house) are shown in Table 2.
(§4) Primer extension assays were used to assess the incorporation of 2′F-araTTP on the DNA template (PF22). The DNA primer (PF20) was first radioactively labeled at the 5′-hydroxyl terminus with a radioactive phosphorus probe and the enzyme T4 polynucleotide kinase (T4 PNK) according to the manufacturer's specifications (MBI Fermentas Life Sciences, Burlington, ON). Incorporation of the ^32P label was accomplished in reaction mixtures consisting of DNA substrate (200 pmol), 2 μl loxreaction buffer (Buffer A for forward reaction: 500 mM Tris-HCl, pH 7.6 at 25° C., 100 mM MgCl2, 50 mM DTT, 1 mM spermidine and 1 mM EDTA), 1 μl T4 PNK enzyme solution (10 U/1 μl in a solution of 20 mM Tris-HCl, pH 7.5, 25 mM KCl, 0.1 mM EDTA, 2 mM DTT and 50% glycerol), 6 μl [γ-^32P]-ATP solution (6000 Ci/mmol, 10 mCi/ml; Amersham Biosciences, Inc.) and autoclaved sterile water to a final volume of 20 μl. The reaction mixture was incubated for about 45-60 min at 37° C., followed by a second incubation for 10 min at 95° C. to heat denature and deactivate the kinase enzyme.

[2] = target: T2, 9° Nm™ DNA polymerase (9N) (Thermococcus sp., UniProt Q56366, E143D); assay: Primer extension assay with 9°Nm DNA polymerase; format: biochemical, Thermococcus species (strain 9° N-7); design: key to Incorporation of three 2′F-araTTP / 2′F-araCTP (incorporation efficiency) / Enzymatic activity during primer extension reactions: ++++: excellent (no pausing observed); +++: very good (with slight pausing); ++: Good, full-length products with significant pausing; +: significant pausing, no full-length product but at least one 2′F-araN incorporation detected; conditions: for Incorporation of three 2′F-araTTP / 2′F-araCTP (incorporation efficiency): DNA template PF22 (2′F-araTTP) or PF24 (2′F-araCTP); for Order of efficiency of incorporation: DNA template PF22 (T/U triphosphates) or PF24 (C triphosphates), three contiguous units; for Enzymatic activity during primer extension reactions: plus dATP, dGTP; for full-length products generated: DNA template PF22, within 2 min, without pausing
T2 construct: purchased New England Biolabs; host or cells: E. coli
Protocol: as §1, §2, §3, §4

[3] = Example 3, DNA template PF24, 3x 2′F-araCTP, dTTP, 55° C.
[4] = Example 2, DNA template PF22, 3x 2′F-araTTP, dCTP, at 37° C.

SMILES	Incorporation of three 2′F-araTTP / 2′F-araCTP (incorporation efficiency) ([1]; 37° C.)	Order of efficiency of incorporation ([1]; 55° C.)	Incorporation of three 2′F-araTTP / 2′F-araCTP (incorporation efficiency) ([2]; 37° C.)	Order of efficiency of incorporation ([2]; 55° C.)	full-length products generated ([2]; 55° C.)	other results
Nc1ccn([C@@H]2O[C@H](COP(=O)(O)OP(=O)(O)OP(=O)(O)O)[C@@H](O)[C@@H]2F)c(=O)n1 [2′F-araCTP, 1-(2-deoxy-2-fluoro-β-D-arabinofuranosyl)cytosine 5′-triphosphate]	+++	dCTP~2′F-rCTP~2′F-araCTP	None	dCTP~2′F-araCTP~2′F-rCTP		Incorporation of three 2′F-araTTP / 2′F-araCTP (incorporation efficiency) ([1]; 55° C.): ++++; Enzymatic activity during primer extension reactions [1, 3]: ++++; Incorporation of three 2′F-araTTP / 2′F-araCTP (incorporation efficiency) ([2]; 55° C.): ++++; Enzymatic activity during primer extension reactions [2, 3]: +++
Nc1ccn([C@@H]2O[C@H](COP(=O)(O)OP(=O)(O)OP(=O)(O)O)[C@@H](O)[C@H]2F)c(=O)n1 [2′F-rCTP, 1-(2-deoxy-2-fluoro-β-D-ribofuranosyl) cytosine 5′-triphosphate, reference compound]		dCTP~2′F-rCTP~2′F-araCTP		dCTP~2′F-araCTP~2′F-rCTP		
O=c1ccn([C@@H]2O[C@H](COP(=O)(O)OP(=O)(O)OP(=O)(O)O)[C@@H](O)[C@H]2F)c(=O)[nH]1 [2′F-rUTP, 1-(2-deoxy-2-fluoro-β-D-ribo-furanosyl)uracil 5′-triphosphate, reference compound]		dTTP~2′F-araTTP > 2′F-rUTP		dTTP~2′F-araTTP > 2′F-rUTP		desired full-length product ([1]; DNA template PF22, after 9.5 h, 55° C.): 20%; expected full-length product ([2]; DNA template PF22, after one hour, 55° C.): ca. 20%
Cc1cn([C@H]2C[C@H](O)[C@@H](COP(=O)(O)OP(=O)(O)OP(=O)(O)O)O2)c(=O)[nH]c1=O [dTTP, reference compound]		dTTP~2′F-araTTP > 2′F-rUTP		dTTP~2′F-araTTP > 2′F-rUTP	ca. 100%	
Nc1ccn([C@H]2C[C@H](O)[C@@H](COP(=O)(O)OP(=O)(O)OP(=O)(O)O)O2)c(=O)n1 [dCTP]		dCTP~2′F-rCTP~2′F-araCTP		dCTP~2′F-araCTP~2′F-rCTP		
Cc1cn([C@@H]2O[C@H](COP(=O)(O)OP(=O)(O)OP(=O)(O)O)[C@@H](O)[C@@H]2F)c(=O)[nH]c1=O [2′F-araTTP, 1-(2-deoxy-2-fluoro-β-D-arabino-furanosyl)thymine 5′-triphosphate]	++++	dTTP~2′F-araTTP > 2′F-rUTP	++++	dTTP~2′F-araTTP > 2′F-rUTP	ca. 100%	yield of full length product ([1]; DNA template PF22, after 5 min, 55° C.): nearly quantitative yield; also recorded: near quantitative yield; Enzymatic activity during primer extension reactions [1, 4]: +++^b; Enzymatic activity during primer extension reactions [2, 4]: +++^b
